These results are taken from article PMC4467461, “Small-molecule activation of SERCA2a SUMOylation for the treatment of heart failure” (Nature Communications, 2015).

One experiment concerns sham-operated mice. Description: Haemodynamic measurements in sham-operated mice. The class given is in vivo. The following applies: sham mice, 0.1, 1, 10 mg kg^−1. The procedure: One day after echocardiography, we performed in-vivo haemodynamics. The mice were anaesthetized with an intraperitoneal injection mixture of urethane (1 mg g^−1), etomidate (10 μg g^−1) and morphine (1 μg g^−1), and were then intubated via a tracheotomy and mechanically ventilated at 7 μl g^−1 tidal volume and 120 respirations per minute. A small incision was made in the apex and a French Millar cathether connected a high-fidelity pressure transducer (Scisense, London, ON, Canada) inserted into the LV. Haemodynamic recordings were performed after 5∼10 min of stable HR. The rate of pressure rise (+dP/dt) and maximal pressure, the time constant of isovolumic relaxation and HR were recorded and analysed. To determine the relative effects of the admittance and conductance techniques to contractility change induced by N106 compound infusion, whole haemodynamic function was recorded at both baseline and after administration of N106 compound through the external jugular vein. N106 compound was solubilized in 10% DMSO (Sigma-Aldrich), 10% Tween-80 (Sigma-Aldrich) and saline for in-vivo experiments. N106 or vehicle solutions were continuously infused through the external jugular vein at a rate of 50 μl min^−1 for 2 min in each dose. Whole haemodynamic functions of increasing dose of N106 of each mouse were recorded for ∼4 h. […]

The next experiment concerns SERCA2a. The experiment is described as follows: SERCA2a ATPase activity assay (coupled enzyme) in cardiomyocytes. It counts as cell-based, Sprague–Dawley rats. The procedure:
Figure 1 N106 increases SERCA2a’s cellular activity and SUMOylation in adult cardiomyocytes. In-vitro characterization of activators of SERCA2a SUMOylation. Cell-based screening of small molecules identified one promising compound. Adult ventricular cardiomyocytes were isolated from Sprague–Dawley rats and treated with small molecules on dose-dependent manner for 24 h. DMSO-treated cardiomyocytes were used as a negative control. (a) Chemical structure of SERCA2a SUMOylation activator. N106, N-(4-methoxybenzo[d]thiazol-2-yl)-5-(4-methoxyphenyl)-1,3,4-oxadiazol-2-amine. (b-g) The effects of N106 compound in cardiomyocyte contractility and calcium transient. The dose-dependent effects of N106 compound presented on peak shortening, the time to maximal departure velocity, the time to maximal return velocity, calcium ratio, decay time constant (τ) and the time to 90% baseline (t90) fluorescence in cardiomyocytes were assessed using a video-based edge-detection system (IonOptix Inc.). n=25 cardiomyocytes from each three of hearts per condition. […] The ATPase activity were measured at 25 °C in 50 mM MOPS, 100 mM KCl, 5 mM MgCl2, 1 mM […] at pCa 5.0 by using a coupled enzyme system consisting of pyruvate kinase and lactate dehydrogenase, and monitoring the oxidation of the reduced form of NADH at […]. The enzyme activity was determined by using same set of cardiomyocytes. […]

Entries after “also recorded” stand apart in the source; their conditions may differ.

On to `COc1ccc(-c2nnc(Nc3nc4c(OC)cccc4s3)o2)cc1` [Compound N106, N-(4-methoxybenzo[d]thiazol-2-yl)-5-(4-methoxyphenyl)-1,3,4-oxadiazol-2-amine], for which the “effect on ESPVR slope, dP/dt max, maximal pressure and heart rate” value with sham-operated mice is given as “no significant effect; also recorded: not statistically significant”. In the experiment on SERCA2a (10 μM, 10∼30 min, sustained at 24 h), the “SERCA2a’s ATPase activity, time course” value is given as “increased”. Moreover, the “SERCA2a ATPase activity” value in the experiment on SERCA2a (increasing N106 concentration, 24 h, pCa 5.0) is “increased”.
